Test results: patent US20240300975A1, “DIMETHYL-SUBSTITUTED THIAZOLOLACTAM COMPOUND AND USE THEREOF” (D3 Bio (Wuxi) Co., Ltd., priority 2021, published 2024)

Key:
[1] = system: human melanoma A375 cells; test: In vivo efficacy in mouse model of human melanoma A375; settings: for TGI: PO, BID, day 21, A375 xenograft nude mouse
Protocol: The anti-tumor effect of WX001 was evaluated using a subcutaneous xenograft tumor model of human melanoma A375 cells in nude mouse.
• Species: mouse • Strain: BALB/c nude mouse • Age: 6-8 weeks old • Gender: female • Body weight: 18-22 grams • Supplier: Vital River Laboratory Animal Technology Co., Ltd.
• 1) Assay cells and culture: Human melanomaA375 cells were cultured in monolayer in vitro. The culture conditions were DMEM medium plus 10% fetal bovine serum, and a 37° C. 5% CO2 incubator. Routine digestion with trypsin-EDTA was performed twice a week for passage. When the cell saturation was 80%-90% and the amount reached the requirement, the cells were harvested, counted, and inoculated; • 2) Tumor tissue inoculation and grouping: 0.1 mL (5×10^5) of A375 cells were subcutaneously inoculated into the right armpit of each mouse. When the average tumor volume reached 170 mm^3, the animals were randomly divided into 4 groups and the administration was started.
• 3) Daily observation of assay animals: The development of this assay protocol and any modifications were evaluated and approved by the Institutional Animal Care and Use Committee (IACUC). The use and welfare of assay animals were carried out in accordance with the regulations of the Association for Assessment and Accreditation of Laboratory Animal Care (AAALAC). Animals were monitored daily for health and death. Routine examinations included observation of tumor growth and the effects of drug treatment on the animals' daily behavior such as behavioral activities, food and water intake (visual inspection only), weight changes (weight measurements twice a week), appearance signs or other abnormalities. Animal deaths and side effects in each group were recorded based on the number of animals in each group.
• a) Vehicle group: 5% DMSO+95% (20% HP-β-CD). • b) Assay compound group: A quantitative amount of the assay compound was weighed in a formulation bottle. A corresponding volume of DMSO was added and then the mixture was vortexed to obtain a clear solution. A corresponding volume of 20% HP-β-CD was added and then the mixture was vortexed to obtain a homogeneous suspension.
• a) Tumor diameter was measured twice a week with a vernier caliper. The calculation formula of tumor volume was: TV=1/2×a×b^2, wherein a and b represent the long and short diameters of tumor, respectively; • b) The tumor-inhibitory efficacy of the compound was evaluated by TGI (%). TGI (%) reflected the inhibition rate of tumor growth. TGI (%) was calculated as follows: TGI (%)={[1−(average tumor volume at the end of administration of a treatment group−average tumor volume at the beginning of administration of this treatment group)]/(average tumor volume at the end of treatment in a solvent control group−average tumor volume at the beginning of treatment in the solvent control group)}×100%.

[2] = In vivo PK study in beagle dogs; settings: male beagle dogs
Protocol: Male beagle dogs were used as assay animals. After a single administration, the plasma concentration of the compound was measured and the pharmacokinetic behavior was evaluated.
Five healthy adult male beagle dogs were selected, wherein 2 were in an intravenous injection group, and 3 were in an oral group. The vehicle in the intravenous injection group was 5% DMSO+95% (20% HP-β-CD). The compound to be assayed was mixed with an appropriate amount of vehicle for intravenous injection, and dissolved with stirring to prepare a clear solution of 0.4 mg/mL. The clear solution was filtered by a microporous membrane, and then ready for use. The vehicle in the oral group was 5% DMSO+95% (20% HP-β-CD). The compound to be assayed was mixed with the vehicle, and dissolved with stirring to prepare a solution of 0.3 mg/mL. Cynomolgus monkeys were administered 1 mg/kg intravenously or 3 mg/kg orally, and then whole blood was collected for a certain period. Plasma was prepared. The drug concentration was analyzed by LC-MS/MS method, and the pharmacokinetic parameters were calculated by Phoenix WinNonlin software (Pharsight, USA).

In the case of `Cc1cccc(CN2C(=O)c3nc(-c4nc(Nc5ccnn5C)ncc4C)sc3C2(C)C)n1` [WX001], the TGI ([1]; 5 mg/kg) is reported as 36%, the TGI ([1]; 10 mg/kg) is reported as 81% and the TGI ([1]; 20 mg/kg) is reported as 104%. For the same molecule, the tolerance ([1]; 5, 10, 20 mg/kg PO BID, during the administration) was “the tolerance is good”, the “body weight of animals” value ([1]; 5, 10, 20 mg/kg PO BID, to the 21st day) was “did not decrease significantly” and the clearance ([2]; dog, plasma, iv, 1 mg/kg intravenously) was 19 mL/min/kg. The Vd ([2]; dog, plasma, iv, 1 mg/kg intravenously, read-out: Vdss) was 1.94 L/kg, the bioavailability ([2]; dog, plasma, oral, 1 mg/kg intravenously / 3 mg/kg orally, read-out: F % (oral bioavailability)) was 52% and the half-life ([2]; dog, plasma, single administration) was 1.09 h. For the same molecule, the Cmax ([2]; dog, po, 3 mg/kg orally, plasma) was 1230 nM and the “Oral DNAUC (AUCPO/Dose)” value ([2]; 3 mg/kg orally) was 1099.27 nM · h/mpk.
